The record followed here is patent publication US8188121B2, “Substituted pyridines as antiparasitic AZA teraryl compounds” (The University of North Carolina at Chapel Hill, priority 2005, dated 2012).

For data set [1], the system named is Trypanosoma brucei rhodesiense (T. b. r.). The experiment in a line: In vitro antiprotozoal activity against T. b. r. The format is cell-based. How it is done: (§1) In vitro antiprotozoal activities were measured following established protocols. See Ismail, M. A., et al., J. Med. Chem., 46, 4761-4769 (2003); Stephens, C. E., et al., Bioorg. Med. Chem. Lett., 13, 2065-2069 (2003) (in vitro assay against Leishmania donovani).
(§2) Testing methods are as described above in Example 17.

For data set [2], the system named is Plasmodium falciparum (P. f.). Description: In vitro antiprotozoal activity against P. f. It counts as cell-based. How it is done: as §1, §2
Data set [3] has as its system L-6 rat mycoblast cells. The experiment in a line: cells. How it is done: as §1, §2
Data set [4] relates to STIB 900 strain of Trypanosoma brucei rhodesiense. The experiment in a line: T. b. r. STIB 900 mouse model. The settings on record: for responders at 100 mg/kg / responders at 20 mg/kg: Trypanosoma brucei, 1440 h; for responders at 100 mg/kg: read-out: Cures; for responders at 20 mg/kg: read-out: Cures (converted). The format is in vivo. The protocol: The activities of compounds 20, 18, 21, 48, 23c, 24c, 5, 4, and 10 against the STIB 900 strain of Trypanosoma brucei rhodesiense (T. b. r.) in a mouse model are shown in Table 3. […] Groups of four mice were infected intraperitoneally with 2×10^5 bloodstream forms of T. b. r. STIB 900 which originates from a patient in Tanzania. On days 3, 4, 5, and 6 post-infection the experimental groups were treated with the indicated compound, either by the intraperitoneal route, or for prodrugs, by the oral route. Usually the highest tolerated dose was used. The highest tolerated dose was determined in a pretoxicological experiment.
Parasitemia of the mice was checked daily up to day 14 post-infection and thereafter 2 times per week up to day 60. One group of mice was not treated and acted as control. Untreated control animals expire between day 7 and 8 post-infection. For relapsing mice, the day of death was recorded and the survival time determined. For the data shown in Table 3, cures reflect the number of mice that survive and are parasite free for 60 days. Survival reflects the average days of survival.
as §2

Where [5] appears, read: Trypanosoma brucei, RHODESIENSE, Table 1, k/K = thousand, read-out: T. b. r. IC50.
[6] abbreviates: Plasmodium falciparum, Table 1, k/K = thousand.
The mark [7] stands for this setting: Rattus norvegicus, L6, read-out: CT IC50.
Setting [8] is: 100 mg/kg po, days 3-6 post-infection, average days of survival.
Setting [9] is: 100 mg/kg po, days 3-6 post-infection, mice surviving parasite free for 60 days, groups of four.
The mark [10] stands for this setting: 20 mg/kg ip, days 3-6 post-infection, average days of survival.
Where [11] appears, read: 20 mg/kg ip, days 3-6 post-infection, mice surviving parasite free for 60 days, groups of four.
Where [12] appears, read: Table 1, k/K = thousand, read-out: T. b. r. IC50.
Setting [13] is: read-out: CT IC50, Table 1, L-6 cells.
[14] abbreviates: Rattus norvegicus, L6, read-out: CT IC50, Table 1, L-6 cells.
The mark [15] stands for this setting: Table 2, K = thousand, read-out: T. b. r. IC50.

Structures can show the parent of a compound that is named as a salt. Where two headings read alike, the source gives them in different places.

In the case of `N=C(NO)c1ccc(-c2ccc(-c3ccc(C(=N)NO)o3)cc2)cc1` [Compound 3, N-Hydroxy-5-[4′-(N-hydroxyamidino)-biphenyl-4-yl]-furan-2-carboxamidine], the results for the IC50 in data set [1] (setting [5]), in data set [2] (setting [6]) and in data set [3] (setting [7]) were 67 µM, 6.6 µM and 106 µM, respectively.

In the case of `CONC(=N)c1ccc(-c2ccc(-c3ccc(C(=N)NOC)o3)cc2)cc1` [Compound 4, N-Methoxy-5-[4′-(N-methoxyamidino)-biphenyl-4-yl]-furan-2-carboxamidine], the IC50 in data set [1] (setting [5]) was 24 µM; in data set [2] (setting [6]) it was 1.6 µM; in data set [3] (setting [7]) it was more than 206 µM. In addition, the Survival in data set [4] (setting [8]) is 29 days. Besides, the responders at 100 mg/kg in data set [4] (setting [9]) came out at 0%.

As to `CC(=O)O.N=C(N)c1ccc(-c2ccc(-c3ccc(C(=N)N)o3)cc2)cc1` [Compound 5, 5-(4′-Amidinobiphenyl-4-yl)-furan-2-carboxamidine acetate salt], the IC50 in data set [1] (setting [5]) worked out at 0.005 µM; in data set [2] (setting [6]) it was 0.001 µM; in data set [3] (setting [7]) it was 2 µM. Besides, the Survival in data set [4] (setting [10]) is given as 21.25 days. Also, the responders at 20 mg/kg in data set [4] (setting [11]) was 0%.

`NC(=NO)c1ccc(-c2ccc(-c3ccc(C(N)=NO)cc3)cc2)cc1` [Compound 18, [1,1′;4′,1″]Terphenyl-4,4″-bis-N-hydroxycarboxamidine]: the half-inhibitory concentration (IC50) was 22.8 µM in data set [1] (setting [12]); more than 118 µM in data set [2] (Table 1, k/K = thousand); more than 212 µM in data set [3] (setting [13]). The Survival in data set [4] (setting [8]) is recorded as 24.75 days. Moreover, the Cures in data set [4] (setting [9]) is listed as 0/4.

For `CON=C(N)c1ccc(-c2ccc(-c3ccc(C(N)=NOC)cc3)cc2)cc1` [Compound 21, [1,1′;4′,1″]Terphenyl-4,4″-bis-N-methoxycarboxamidine], the IC50 is 13.8 µM in data set [1] (setting [5]), 0.371 µM in data set [2] (setting [6]) and 118 µM in data set [3] (setting [7]). The compound further came in with a Survival in data set [4] (setting [8]) of 20.75 days. For the same compound, the responders at 100 mg/kg in data set [4] (setting [9]) came to 0%.

On to `CC(=O)O.N=C(N)c1ccc(-c2ccc(-c3ccc(C(=N)N)cc3)nc2)cc1` [Compound 23c, Phenyl[1,1′]pyridyl[4′,1″]phenyl-4,4″-bis-carboxamidine acetate salt], for which the IC50 in data set [1] (setting [12]) amounted to 0.002 µM; in data set [2] (Table 1, k/K = thousand), 0.01 µM; in data set [3] (setting [13]) it was 49.9 µM. This compound showed a Survival in data set [4] (setting [10]) of more than 60 days. Also, in data set [4] (setting [11]), the Cures is 4/4.

For the compound `NC(=NO)c1ccc(-c2ccc(-c3ccc(C(N)=NO)cc3)c(F)c2)cc1` [Compound 24a, 2′-Fluoro-[1,1′;4′,1″]terphenyl-4,4″-bis-N-hydroxycarboxamidine], the IC50 in data set [1] (setting [12]) is more than 201 µM; in data set [2] (Table 1, k/K = thousand), 0.925 µM; in data set [3] (setting [13]), 29.1 µM.

As for `NC(=NO)c1ccc(-c2ccc(-c3ccc(C(N)=NO)cc3)c(C(F)(F)F)c2)cc1` [Compound 24b, 2′-Trifluoromethyl-[1,1′;4′,1″]terphenyl-4,4″-bis-N-hydroxycarboxamidine], the IC50 in data set [1] (setting [12]) stood at 29.9 µM; in data set [2] (Table 1, k/K = thousand), 3.1 µM; in data set [3] (setting [13]) it was 13.3 µM.

Take `CON=C(N)c1ccc(-c2ccc(-c3ccc(C(N)=NOC)cc3)c(F)c2)cc1` [Compound 25a, 2′Fluoro-[1,1′;4′,1″]terphenyl-4,4″-bis-methoxycarboxamidine]: the IC50 is more than 51.5 µM in data set [1] (setting [12]) and 4.2 µM in data set [2] (Table 1, k/K = thousand).

`CON=C(N)c1ccc(-c2ccc(-c3ccc(C(N)=NOC)cc3)c(C(F)(F)F)c2)cc1` [Compound 25b, 2′-Trifluoromethyl-[4′,1′;4′,1″]terphenyl-4,4″-bis-methoxycarboxamidine]: the IC50 in data set [1] (setting [12]) was 36.9 µM; in data set [2] (Table 1, k/K = thousand) it was 3.8 µM; in data set [3] (setting [13]), 42.2 µM.

As for `CONC(=N)c1ccc(-c2ccc(-c3ccc(C(=N)NOC)cc3)nc2)cc1` [Compound 25c, Phenyl[1,1′]pyridyl[4′,1″]phenyl-4,4″-bis-N-methoxycarboxamidine], the IC50 in data set [1] (setting [12]) is 34.7 µM; in data set [2] (Table 1, k/K = thousand), 3.2 µM; in data set [3] (setting [13]) it was more than 166 µM.

For `N=C(N)c1ccc(-c2cnc(-c3ccc(C(=N)N)cc3)nc2)cc1` [Compound 27, 2,5-Bis-(4′-amidinophenyl)-pyrimidine], the IC50 in data set [2] (setting [6]) came to 0.0005 µM; in data set [3] (setting [14]) it was 40.9 µM.

As for `CON=C(N)c1ccc(-c2ccc(-c3ccc(C(N)=NOC)nc3)cc2)cn1` [Compound 33, 1,4-Bis-[5′-(N-methoxyamidinopyridin-2′-yl)]phenylene], the IC50 in data set [1] (setting [12]) is 82.9 µM; in data set [2] (Table 1, k/K = thousand), 1.2 µM; in data set [3] (setting [13]), more than 158 µM.

With `N=C(N)c1ccc(Cc2ccc(-c3ccc(C(=N)N)cc3)nc2)cc1` [Compound 36a, 2-(4′-Amidinophenyl)-5-(4″-amidinobenzyl)pyridine acetate salt], the IC50 was found to be 0.041 µM in data set [1] (setting [12]); 0.011 µM in data set [2] (Table 1, k/K = thousand); 18.1 µM in data set [3] (setting [13]).

For the compound `NC(=NO)c1ccc(-c2ccc(-c3ccc(C(N)=NO)cc3)c3ccccc23)cc1` [Compound 39, Phenyl[1,1′]naphthyl-[4′,1″]phenyl-4,4″-bis-N-hydroxycarboxamidine], the IC50 came to 13.4 µM in data set [1] (setting [15]); 9.1 µM in data set [2] (Table 2, K = thousand); 9.4 µM in data set [3].

For the compound `CON=C(N)c1ccc(-c2ccc(-c3ccc(C(N)=NOC)cc3)c3ccccc23)cc1` [Compound 40, Phenyl[1,1′]naphthyl-[4′,1″]phenyl-4,4″-bis-N-methoxycarboxamidine], the IC50 turned out to be 29.5 µM in data set [1] (setting [15]); 3.9 µM in data set [2] (Table 2, K = thousand); 16.2 µM in data set [3].

Take `CCOC(=O)N=C(N)Nc1ccc(-c2ccc(-c3ccc(NC(N)=NC(=O)OCC)cc3)cc2)cc1` [Compound 50a, 4,4″-Bis(N′-ethoxycarbonyl)-guanidino-[1,1′;4′,1″]terphenyl]: the IC50 was 142 µM in data set [1] (setting [12]); 1.7 µM in data set [2] (Table 1, k/K = thousand); more than 181 µM in data set [3] (setting [13]).

For `CCOC(=O)N=C(NC)Nc1ccc(-c2ccc(-c3ccc(NC(=NC(=O)OCC)NC)cc3)cc2)cc1` [Compound 50b, 4,4″-Bis(N′-ethoxycarbonyl-N″-methyl)-guanidino-[1,1′;4′,1″]terphenyl], the IC50 was found to be 7.5 µM in data set [1] (setting [12]); 8.9 µM in data set [2] (Table 1, k/K = thousand); 5.7 µM in data set [3] (setting [13]).

As to `CCOC(=O)N=C(Nc1ccc(-c2ccc(-c3ccc(NC(=NC(=O)OCC)NC(C)C)cc3)cc2)cc1)NC(C)C` [Compound 50c, 4,4″-Bis(N′-ethoxycarbonyl-N″-isopropyl)-guanidino-[1,1′;4′,1″]terphenyl], the IC50 in data set [1] (setting [12]) was found to be 14.2 µM; in data set [2] (Table 1, k/K = thousand), 4.5 µM; in data set [3] (setting [13]), 5.3 µM.

Regarding `CNC(=N)Nc1ccc(-c2ccc(-c3ccc(NC(=N)NC)cc3)cc2)cc1` [Compound 51a, 4,4″-Bis(N′-methyl)-guanidino-[1,1′;4′,1″]terphenyl], the IC50 in data set [1] (setting [12]) turned out to be 0.018 µM; in data set [2] (Table 1, k/K = thousand) it was 0.007 µM; in data set [3] (setting [13]) it was 65.1 µM.

Turning to `N=C(N)Nc1ccc(-c2ccc(-c3ccc(NC(=N)N)cn3)cc2)nc1` [Compound 55, 1,4-Bis-(5′-guanidinopyridin-2′-yl)phenylene hydrochloride salt], the values for the IC50 in data set [1] (setting [5]), in data set [2] (setting [6]) and in data set [3] (setting [14]) were 0.169 µM, 0.151 µM and 152 µM, respectively.

Take `CON=C(N)c1ccc(-c2ccc(-c3ccc(C(N)=NOC)nc3)cc2)cn1` [Compound 68, 1,4-Bis-[2′-(N-methoxyamidinopyridin-5′-yl)]-phenylene hydrochloride salt]: the IC50 is 141 µM in data set [1] (Table 1, k/K = thousand, hydrochloride salt, read-out: T. b. r. IC50); 4.57 µM in data set [1] (Table 4, read-out: T. b. IC50); 5.5 µM in data set [2] (Table 1, k/K = thousand, hydrochloride salt); 0.637 µM in data set [2] (Table 4); more than 194 µM in data set [3] (read-out: CT IC50, Table 1, L-6 cells, hydrochloride salt); more than 193 µM in data set [3] (read-out: CT IC50, Table 4, L-6 cells).

As to `CN(C)CC(=O)ON=C(N)c1ccc(-c2ccc(-c3ccc(C(N)=NOC(=O)CN(C)C)nc3)cc2)cn1` [Compound 69, 1,4-Bis-{2′-[N-(N′,N′-dimethylaminoacetoxy)amidinopyridin-5′-yl]}-phenylene], in data set [4] (25 mg/kg po, Table 5), the Cures is recorded as 0/4 and the Survival worked out at 28.25 days.

Regarding `N=C(N)c1ccc(OCCCCCOc2ccc(C(=N)N)cc2)cc1` [pentamidine, reference compound], in data set [4] (setting [10]), the Survival turned out to be 42.7 days. In addition, the responders at 20 mg/kg in data set [4] (setting [11]) was 0%.
